Measurements reported in patent US12558348B2, “Bioactive phytochemicals” (Phytoquest Limited, priority 2019, dated 2026).

Legend:
[1] = system: sialidase (including NanH from T. forsythia); assay: Sialidase assay with methylumbelliferyl-N-acetylneuraminic acid; type: biochemical
Protocol: Sialidase assays used 2.8 mM and 0.28 mM inhibitor (or water without inhibitor) and 2.5 nM sialidase (including NanH from T. forsythia) incubated in the presence of 0.1 mM methylumbelliferyl-N-acetyineuraminic acid, pH 7.2 in 20 mM sodium phosphate buffer. Reactions were stopped at 30 seconds and 60 seconds via addition of pH 10.5 60 mM sodium carbonate buffer. Release of fluorogenic methylumbelliferone (MU) was quantified by measuring fluorescence emission at 450 nm, excitation 350 nm. Percentage sialidase activity was expressed as the change in fluorescence between 30 seconds and 60 seconds compared to that of a reaction without inhibitor. Reactions were carried out in triplicate.

[2] = system: CD44-HA binding; assay: CD44-HA (hyaluronic acid) binding activity in THP-1 cells by ELISA; type: cell-based, human; conditions: for CD44-HA: LPS-stimulated THP-1; for % reduction in CD44-HA levels: vs LPS control
Protocol: The THP-1 cells were cultured in RPMI media supplemented with mercaptoethanol & glutamine to get 80% confluence in the culture flask, then aspirated and centrifuged at 1500 rpm for 5 mins. The cell pellet was then resuspended in 1 ml of RPMI complete media and counted conventionally using a hemocytometer. The cells (5×106) were incubated with Phorbol 12-myristate 13-acetate (PMA) (10 ng/ml) in separate dishes to cause differentiation of the THP-1 cells. To determine the CD44-HA binding activity, THP-1 cells were pretreated for 1 hr with idoBR1 or cucumber extract-Q-actin (batch no. B17CF001) at the concentrations 100 μg/ml to 12.5 μg/ml and 200 μg/ml to 25 μg/ml respectively followed by 24 hr LPS (1 μg/ml) stimulation. Post incubation, the cell lysates were taken for further analysis.
Anti-CD44 monoclonal antibody (Invitrogen, 2 μg) was coated to each well in 96-well plates in 50 mM carbonate/bicarbonate buffer (pH 9.6) and incubated overnight at 4° C. The unbound antibodies were removed using PBS with 0.05% Tween 20 (PBS-T wash solution). The wells were blocked using 1% BSA and incubated for 1 hr at 37° C. The wells were washed thrice thoroughly using PBS-T wash solution by adding 200 μl into wells. 50 μl cell lysates were added to the wells and incubated for 1 hr at 37° C. The wells were then washed thrice by adding 200 μl of PBS-T by soaking the wells for 30 secs before each wash. Biotinylated-Hyaluronic acid (HA) antibody followed by Streptavidin-HRP was added to form an immune complex and incubated for 60 mins at 37° C. The solution was aspirated and the wells washed thrice with 200 μl wash solution by soaking the wells for 30 secs. 50 μl of both Chromogen A and Chromogen B was added to each well. The plate was incubated for 15 mins away from light at 37° C. The reaction was stopped by adding 50 μl Stop Solution and the absorbance was read at 450 nm.

[3] = system: phosphorylated p38; assay: Western blot of phosphorylated p38 in LPS-stimulated THP-1 cells; type: cell-based, human; conditions: vs LPS = 1.00
Protocol: THP-1 cells were cultured in RPMI media supplemented with mercaptoethanol & glutamine to get 80% confluence in culture flasks, then they were aspirated and centrifuged at 1500 rpm for 5 mins. The cell pellet was then resuspended in 1 ml of RPMI complete media and counted conventionally using a hemocytometer. The cells (5×106) were incubated with PMA (10 ng/ml) in separate dishes to differentiate THP-1 cells. To determine the protein expression p38 & p42/44, THP-1 cells were pre-treated for 1 hr with idoBR1-100 μg/ml & 50 μg/ml and cucumber extract (Q-actin batch no. B17CF001)—200 μg/ml & 100 μg/ml, followed by 2 hr LPS (1 μg/ml) stimulation. Post incubation, the cells were harvested and whole protein was isolated.
Cell pellets were lysed, and the protein concentration was determined using the Bio-Rad protein determination assay (Bio-Rad). Total cell proteins were subjected to 8% polyacrylamide SDS gel electrophoresis followed by transfer onto polyvinylidene difluoride membranes (Thermoscientific). The membranes were probed with either mouse anti-phospho-p38 mAb (Thermoscientific) or mouse anti-phospho-p42/44 mAb (Thermoscientific), followed by horseradish peroxidase-conjugated goat anti-mouse polyclonal antibodies (Thermoscientific). All immunoblots were visualized by ECL (Amersham Biosciences).

[4] = Oral availability: idoBR1 in urine after eating cucumbers (GC-MS); type: in vivo, human; conditions: for excretion of idoBR1 in urine: volunteer, roughly 13 mg consumed in cucumbers
Protocol: Parisien pickling cucumbers (seeds purchased from Lidl 2013) were grown organically and three eaten at midday by each of one volunteer and one volunteer. […] The volunteers ate no Cucurbitaceae food for 15 hours prior to the experiment. Urine samples pre-consumption were collected over 3 hours as t=0 and then samples collected for 9 hours for the […] and 15 hours for the person. The 30 g cucumber sample was homogenised in 50% ethanol (aq) and after 15 hours extraction it was filtered and the idoBR1 fraction bound to cation exchange resin IR120 in the H+ form. After washing the column with water, the material displaced with 2M ammonia solution was dried (52.3 mg) and analysed by GC-MS after trimethylsilylation using Pierce TriSil. The remaining 51 mg of material then had 0.2 mg of castanospermine added for comparative quantification purposes. The entire urine samples were similarly treated using cation exchange resin except the material displaced by ammonia solution was run a second time through the same cation exchange resin (now in the ammonium form) to reduce strong bases (which will bind to IR120 in the ammonium form) and only the unretained material was kept. The urine idoBR1 fractions were dried and made up to 20 ml in water. 500 ul of each was sampled and 0.025 mg of castanospermine added.
This was carried out on a Perkin Elmer Turbomass Gold GCMS. The spectrum of the major peak at 10.33 mins matched the GCMS spectrum of authentic idoBR1, 900288 PhytoQuest Ltd, UK). The relative response factor was calculated between authentic BR1 (900125, PhytoQuest Ltd) and castanospermine is 1:2. Assuming the same response factor, the amount of idoBR1 was estimated as 1.5 mg in the 30 g sample which means that the volunteers consumed roughly 260/30×1 5 mg=13 mg of idoBR1.

O=C(O)[C@@H]1NC[C@H](O)[C@@H](O)[C@@H]1O [idoBR1, (2R,3R,4R,5S)-3,4,5-trihydroxypiperidine-2-carboxylic acid]
inhibition of the sialidase ([1]; 0.28 mM inhibitor): 42%
inhibition of the sialidase ([1]; 2.8 mM inhibitor): 36%
CD44-HA ([2]; 12.5 μg/mL): 101.48 ng/mL
% reduction in CD44-HA levels ([2]; 12.5 μg/mL): 8.12%
CD44-HA ([2]; 25 μg/mL): 94.93 ng/mL
% reduction in CD44-HA levels ([2]; 25 μg/mL): 14.05%
CD44-HA ([2]; 50 μg/mL): 88.43 ng/mL
% reduction in CD44-HA levels ([2]; 50 μg/mL): 19.93%
CD44-HA ([2]; 100 μg/mL): 81.04 ng/mL
% reduction in CD44-HA levels ([2]; 100 μg/mL): 26.62%
Relative expression of p38 ([3]; 50 μg/ml): 0.88
Relative expression of p38 ([3]; 100 μg/ml): 0.80
conjugation in the urine analysis ([4]; human urine): No obvious conjugation
oral availability ([4]; human, eaten cucumber): available orally
excretion of idoBR1 in urine ([4]; after 15 hours): approximately 2.4 mg
excretion of idoBR1 in urine ([4]; samples collected for 9 hours): approximately 2.1 mg
